In patent US9932637B2, “Genetic polymorphisms associated with cardiovascular disorders and drug response, methods of detection and uses thereof” (CELERA CORPORATION, priority 2003, dated 2018):
Several values for one entry are separate records, joined by “and”; a condition that tells them apart may be missing. Equal entries are not always repeated.

Test system: patients with prior myocardial infarction (CARE study)
Assay: CARE aligned analysis (prospective and case/control design, white males): association of genotypes with pravastatin efficacy (Tables 13, 15)
Assay type: in vivo, human
Settings: for Pravastatin vs placebo odds ratio, 1 rare allele / Pravastatin vs placebo odds ratio, 2 rare alleles / 2 rare alleles n/total (%), pravastatin patients / Pravastatin vs placebo odds ratio, 0 rare alleles: CARE, F MI/SD/NF MI; for Pravastatin Patients (%) / Pravastatin Patients n/total: F&NF MI, WM
Description: The data presented in Table 8 based on an association of genotypes with pravastatin efficacy of the CARE samples were further analyzed and presented in Table 13. The further analysis was performed to align the data obtained from the analysis of the CARE samples, which was a prospective study, to the analysis of the WOSCOP samples, which was a case/control study. Table 13 also presents an analysis of the association of genotypes with pravastatin efficacy in the WOSCOPs samples. Relative to the analysis performed on the data presented in Table 8, there are two significant differences to determine if the SNP influenced pravastatin efficacy. Data obtained from the CARE samples were separated by study design into two groups, those in the prospective study design group and those in the case/control study design group. The original care study contained 16 protocol defined cardiovascular disease defined endpoints and 150 other phenotypes. […] The control groups used to compare the data were also divided into two groups, the “all possible” control group and the “cleaner” control group. […] Because the participants in the WOSCOPs trial were all white males, only data obtained from white males in the CARE study were analysed. Data from the “all possible” and “cleaner” controls were compared to data obtained from the cases in the prospective study design while only data from “cleaner” controls were compared to cases in the case/control study design. The data from the case/control cohorts were analysed using conditional logistic regression (as opposed to logistic regression used for the original anaylsis).
The anaylsis was refined as described for both Tables 13 and 14.

[1] = IL9 hCV3275199, 0 Rare Alleles, CARE Case/Control, All Possible controls
[2] = IL9 hCV3275199, 0 Rare Alleles, CARE Case/Control, Cleaner controls
[3] = IL9 hCV3275199, 0 Rare Alleles, CARE Prospective, All Possible controls
[4] = IL9 hCV3275199, 0 Rare Alleles, CARE Prospective, Cleaner controls
[5] = IL9 hCV3275199, 1 Rare Allele, CARE Case/Control, All Possible controls
[6] = IL9 hCV3275199, 1 Rare Allele, CARE Case/Control, Cleaner controls
[7] = IL9 hCV3275199, 1 Rare Allele, CARE Prospective, All Possible controls
[8] = IL9 hCV3275199, 1 Rare Allele, CARE Prospective, Cleaner controls
[9] = ITGA4 hCV7618856, 0 Rare Alleles, CARE Case/Control, Cleaner controls
[10] = ITGA4 hCV7618856, 1 Rare Allele, CARE Case/Control, All Possible controls
[11] = ITGA4 hCV7618856, 1 Rare Allele, CARE Case/Control, Cleaner controls
[12] = ITGA4 hCV7618856, 1 Rare Allele, CARE Prospective, All Possible controls
[13] = KDR hCV16192174, 0 Rare Alleles, CARE Case/Control, All Possible controls
[14] = KDR hCV16192174, 0 Rare Alleles, CARE Case/Control, Cleaner controls
[15] = KDR hCV16192174, 0 Rare Alleles, CARE Prospective, All Possible controls
[16] = KDR hCV16192174, 0 Rare Alleles, CARE Prospective, Cleaner controls
[17] = KDR hCV16192174, 1 Rare Allele, CARE Case/Control, All Possible controls
[18] = KDR hCV16192174, 1 Rare Allele, CARE Case/Control, Cleaner controls
[19] = KDR hCV16192174, 1 Rare Allele, CARE Prospective, All Possible controls
[20] = KDR hCV16192174, 1 Rare Allele, CARE Prospective, Cleaner controls
[21] = KDR hCV22271999, 0 Rare Alleles, CARE Case/Control, All Possible controls
[22] = KDR hCV22271999, 0 Rare Alleles, CARE Case/Control, Cleaner controls
[23] = KDR hCV22271999, 0 Rare Alleles, CARE Prospective, All Possible controls
[24] = KDR hCV22271999, 0 Rare Alleles, CARE Prospective, Cleaner controls
[25] = KDR hCV22271999, 1 Rare Allele, CARE Case/Control, All Possible controls
[26] = KDR hCV22271999, 1 Rare Allele, CARE Case/Control, Cleaner controls
[27] = KDR hCV22271999, 1 Rare Allele, CARE Prospective, All Possible controls
[28] = KDR hCV22271999, 1 Rare Allele, CARE Prospective, Cleaner controls

CC[C@H](C)C(=O)O[C@H]1C[C@H](O)C=C2C=C[C@H](C)[C@H](CC[C@@H](O)C[C@@H](O)CC(=O)O)[C@H]21 [pravastatin]
Pravastatin vs placebo odds ratio, 1 rare allele (IL4R hCV2769554, Case/Control): 0.74 and 0.64
Pravastatin vs placebo odds ratio, 2 rare alleles (IL4R hCV2769554, Case/Control): 1.66 and 1.52
Pravastatin Patients (%) [1]: (12.4%)
Pravastatin Patients n/total [1]: 111/896
Pravastatin Patients (%) [2]: (17.5%)
Pravastatin Patients n/total [2]: 111/633
Pravastatin Patients (%) [3]: (12.2%)
Pravastatin Patients n/total [3]: 111/911
Pravastatin Patients (%) [4]: (17.2%)
Pravastatin Patients n/total [4]: 111/644
Pravastatin Patients (%) [5]: (5.3%)
Pravastatin Patients n/total [5]: 15/283
Pravastatin Patients (%) [6]: (8.2%)
Pravastatin Patients n/total [6]: 15/184
Pravastatin Patients (%) [7]: (5.2%)
Pravastatin Patients n/total [7]: 15/290
Pravastatin Patients (%) [8]: (8.0%)
Pravastatin Patients n/total [8]: 15/187
Pravastatin Patients (%) (ITGA4 hCV7618856, 0 Rare Alleles, CARE Case/Control, All Possible controls): (10.1%)
Pravastatin Patients (%) [9]: (14.7%)
Pravastatin Patients n/total [9]: 120/817
Pravastatin Patients (%) (ITGA4 hCV7618856, 0 Rare Alleles, CARE Prospective, All Possible controls): (10.0%)
Pravastatin Patients (%) [10]: (25.0%)
Pravastatin Patients n/total [10]: 5/20
Pravastatin Patients (%) [11]: (31.3%)
Pravastatin Patients n/total [11]: 5/16
Pravastatin Patients (%) [12]: (23.8%)
Pravastatin Patients n/total [12]: 5/21
2 rare alleles n/total (%), pravastatin patients (ITGAE hCV1243283, Case/Control): (8.0%)
Pravastatin vs placebo odds ratio, 0 rare alleles (ITGAE hCV1243283, Case/Control): 0.79
Pravastatin vs placebo odds ratio, 1 rare allele (ITGAE hCV1243283, Case/Control): 0.84
Pravastatin vs placebo odds ratio, 2 rare alleles (ITGAE hCV1243283, Case/Control): 0.24
Pravastatin Patients (%) [13]: (9.0%)
Pravastatin Patients n/total [13]: 87/971
Pravastatin Patients (%) [14]: (13.1%)
Pravastatin Patients n/total [14]: 87/666
Pravastatin Patients (%) [15]: (8.8%)
Pravastatin Patients n/total [15]: 87/985
Pravastatin Patients (%) [16]: (12.9%)
Pravastatin Patients n/total [16]: 87/675
Pravastatin Patients (%) [17]: (17.2%)
Pravastatin Patients n/total [17]: 39/227
Pravastatin Patients (%) [18]: (23.9%)
Pravastatin Patients n/total [18]: 39/163
Pravastatin Patients (%) [19]: (16.6%)
Pravastatin Patients n/total [19]: 39/235
Pravastatin Patients (%) [20]: (23.2%)
Pravastatin Patients n/total [20]: 39/168
Pravastatin vs placebo odds ratio, 0 rare alleles (KDR hCV16192174, Case/Control): 0.66 and 0.58
Pravastatin vs placebo odds ratio, 1 rare allele (KDR hCV16192174, Case/Control): 1.68
Pravastatin vs placebo odds ratio, 2 rare alleles (KDR hCV16192174, Case/Control): 0.41 and 0.35
2 rare alleles n/total (%), pravastatin patients (KDR hCV16192174, Prospective): (10.0%)
Pravastatin vs placebo odds ratio, 0 rare alleles (KDR hCV16192174, Prospective): 0.61
Pravastatin vs placebo odds ratio, 1 rare allele (KDR hCV16192174, Prospective): 1.41
Pravastatin vs placebo odds ratio, 2 rare alleles (KDR hCV16192174, Prospective): 0.30
Pravastatin Patients (%) [21]: (9.0%)
Pravastatin Patients n/total [21]: 87/969
Pravastatin Patients (%) [22]: (13.1%)
Pravastatin Patients n/total [22]: 87/665
Pravastatin Patients (%) [23]: (8.9%)
Pravastatin Patients n/total [23]: 87/983
Pravastatin Patients (%) [24]: (12.9%)
Pravastatin Patients n/total [24]: 87/674
Pravastatin Patients (%) [25]: (17.3%)
Pravastatin Patients n/total [25]: 39/226
Pravastatin Patients (%) [26]: (24.1%)
Pravastatin Patients n/total [26]: 39/162
Pravastatin Patients (%) [27]: (16.7%)
Pravastatin Patients n/total [27]: 39/234
Pravastatin Patients (%) [28]: (23.4%)
Pravastatin Patients n/total [28]: 39/167
